Assay results reported in patent US7429397B2, “Herbal formulation as memory enhancer in Alzheimer condition” (Council of Scientific and Industrial Research, priority 2004, dated 2008).
Marks after values point to notes of the source that are not given here.

How the values were obtained:
[1] = test system: λ carrageenin induced edema in rats; test: λ carrageenin induced paw edema; format: in vivo
Protocol: Carrageenin induced paw edema: Rats were injected with 0.1 ml of 1% λ carrageenin (St.-Louis, Mo.) into the subplantar side of the left hind paw. The paw was marked with ink at the level of the lateral malleolus and dipped in perspex cell up to this mark. The paw volume was measured with an Ugo Basile Plethysmometer (No: 61402) (7140 Comerio-varese, Italy) immediately and 3 h after injecting the λ carrageenin suspension. […] Significant reductions in the paw volume compared to vehicle treated control animals were considered as anti-inflammatory response. Percentage inhibition of oedema was calculated as follows: % Inhibition=(1−VT/VC)×100 VT=Paw volume in drug treated rats, VC=Paw volume in control group of rats.

[2] = test system: impairment of memory acquisition in step-down test in rats (scopolamine); test: Passive avoidance task (step-down test), scopolamine-induced impairment of memory acquisition; format: in vivo
Protocol: Passive avoidance task (step-down test): A step-down passive avoidance was examined using apparatus consisted of a box (25×25×40 cm), a floor with stainless-steel grid 2 mm in diameter at 8-mm intervals, and a rubber platform (4 cm diameter, 4 cm height) set on the grid in one corner. Electric stimulation was given through the grid connected with a scrambled shock generator. […] For this trial, each rat was placed gently on the platform and allowed to habituate freely for 3 min, and then electric shock (0.4 mA) were delivered to the grid. If the rat stepped down from the platform, the electric shock was delivered to the rat on the grid floor. The cut off time was 2 min. A retention trail was performed 24 hr after the acquisition trail. Each rat was again placed on the platform. Time (step-down latency) that elapsed until rats stepped down from the electric grid of the platform to shock free zone was recorded. […] An error was counted when ever the rat stepped down from platform. The number of error made in 2 min was recorded.

SMILES	Paw volume (ml) at 3 h λ carrageenin ([1]; 100 mg/kg orally 1 h before carrageenin, six rats, mean ± SEM)	inhibition at 100 mg/kg ([1]; Rattus norvegicus, inhibition of paw oedema at 3 h vs control, 100 mg/kg, (1−VT/VC)×100) [%]	number of mistakes and latency period (in words) ([2]; scopolamine treated group)	Latency ([2]; step-down test, rats n=10, scopolamine 0.4 mg/kg i.p., formulations 100 mg/kg, tacrine dose not given, mean ± S.E.M.) [s]
COc1ccc2c(c1)c(CC(=O)O)c(C)n2C(=O)c1ccc(Cl)cc1 [Indomethacin]	0.18 ± 0.02^c ml	79.3		
CN1[C@@H]2C[C@@H](OC(=O)[C@H](CO)c3ccccc3)C[C@H]1[C@@H]1O[C@@H]12 [Scopolamine]			significant increase in the number of mistakes as well as increase the latency period	8.8 ± 0.03
